According to patent publication US20100105772A1, “USE OF NOVEL LIPID MEDIATORS TO INHIBIT ANGIOGENESIS” (priority 2008, published 2010):

Experiments:
Type in all cases: in vivo, mice
VEGF-D mRNA = assay: Real-time PCR of VEGF-D mRNA in suture-induced inflamed corneas; conditions: after suture placement; vs vehicle-treated controls
Experimental: (§1) FIG. 4. The Impact of Lipoxin on the mRNA Expression of VEGFs and VEGFRs in Inflamed Corneas. ATLa or vehicle was subconjunctivally injected at 0 h and 48 h after suture placement. For each compound treatment, corneas were harvested from a group of mice at 24 h, and another group at 72 h after suture placement, as well as from normal untreated control corneas (6 corneas per group). (A) VEGF ligand species (VEGF-A, VEGF-C, VEGF-D) and (B) VEGFRs (VEGFR2 and VEGFR3) were tested by real-time PCR and normalized to GAPDH mRNA. Values are expressed as fold change over the normal control cornea. Results represent the mean (±SEM) of three samples per group (each sample consisted of 2 pooled corneas), and the data are representative of two independent experiments (*P<0.05, **P<0.001, ***P<0.0005, vs vehicle-treated group, t-test). […]
(§2) BALB/c mice were randomized to receive ATLa, or vehicle (normal saline) by subconjunctival injection in a masked fashion after suture or hydron pellet placement. […] ATLa was synthesized as described previously.^20 The physical properties were monitored routinely via LC/MS/MS matching the reported biological and physical properties prior to analysis in present experiments. […]

VEGFR-3 mRNA = assay: Real-time PCR of VEGFR-3 mRNA in suture-induced inflamed corneas; conditions: after suture placement; vs vehicle-treated controls
Experimental: as §1, §2

mouse IL-1 beta = assay: ELISA of IL-1 beta protein in homogenates of suture-induced inflamed corneas
Experimental: FIG. 7. ATLa Regulates IL-1β. Mice were treated at Oh and 48 h after suture-placement with ATLa or vehicle. Whole corneas were excised at 72 h, and subsequently freeze-thawed 3 times. Cornea was then homogenized using a pellet pestile motor with additional protease inhibitors. Homogenates were centrifuged at 12,000 rpm for 5 minutes and the supernatant was assayed for mouse IL-1 beta via ELISA (eBioscience, USA) according to the manufacturer's instructions.
The standard model for induction of inflammatory corneal NV is associated with development of intrastromal vessels in close association with a mixed-cell (primarily neutrophilic) infiltrate.^14,15 Three interrupted sutures (11-0 nylon, Sharpoint; Vanguard, Houston, Tex.) were placed intrastromally with two stromal incursions extending over 120° of the corneal circumference each to induce inflammatory corneal NV, which is also associated with significant LA, as described previously.^14 The corneas were followed by slit-lamp biomicroscopy for corneal NV development. […]
BALB/c mice were randomized to receive ATLa, or vehicle (normal saline) by subconjunctival injection in a masked fashion after suture or hydron pellet placement. […] ATLa was synthesized as described previously.^20 The physical properties were monitored routinely via LC/MS/MS matching the reported biological and physical properties prior to analysis in present experiments.

IL-1α mRNA = assay: Real-time PCR of IL-1α mRNA in suture-induced inflamed corneas; conditions: 24 h and 72 h after suture placement; vs vehicle
Experimental: FIG. 3. Lipoxin Reduces Cytokine mRNA Expressions in Inflamed Corneas. ATLa or vehicle was subconjunctivally injected at 0 h and 48 h after suture placement. For each compound treatment, corneas were harvested from a group of mice at 24 h, and another group at 72 h after suture placement, as well as from normal untreated control corneas (6 corneas per group). mRNA levels of inflammatory cytokines (including IL-1α, IL-1β, and TNF-α) were determined by real-time PCR. Data were normalized to GAPDH mRNA and values were expressed as the fold change over normal control corneas. Results represent the mean (±SEM) of three samples per group (each sample consisted of 2 pooled corneas), and data are representative of two independent experiments (*P<0.05, **P<0.001 vs vehicle-treated group, t-test). […]
as §2

COC(=O)CCC[C@H](O)[C@H](O)/C=C/C=C/C=C\C=C\[C@H](O)COc1ccc(F)cc1 [ATLa, 15-epi-16-(para-fluoro)-phenoxy-lipoxin A4 methyl ester]
VEGF-D mRNA expression (VEGF-D mRNA): not significantly altered
VEGFR-3 mRNA expression (VEGFR-3 mRNA): not significantly altered
IL-1 beta in corneas (mouse IL-1 beta; ELISA of corneal homogenate supernatant, 72 h, treated at 0 h and 48 h, n=4): 21.3 ± 0.8 pg/mL
decrease in IL-1β protein level (mouse IL-1 beta; ELISA, 72 h after suture placement, vs vehicle-treated group): 70%
expression of IL-1α (mRNA) (IL-1α mRNA): not significantly altered
